Values after ≈ are worked out from the molar mass of the structure shown.
Columns and labels:
[1] = test system: Pseudomonas aeruginosa AJ 2116; assay: Minimum Inhibitory Concentration (MIC) against Pseudomonas aeruginosa AJ 2116 in a culture; assay type: cell-based; details: AJ2116, minimum concentration required to inhibit growth of test organism in a culture
Protocol: Antibacterial activity was determined with regards to the compounds produced in the examples described above. Some of Comparative Minimum Inhibitory Concentrations (MIC) (the minimum concentration of the compound in micrograms per milliliter required to inhibit the growth of the test organism in a culture) obtained using Pseudomonas aeruginosa AJ 2116 as the test organism, are presented in Table 5.

[2] = Concentration in blood after oral administration to mice (oral absorption); assay type: in vivo; details: Mouse (ICR 5W male), oral 50 mg/kg; for concentration at 0.5 h: 30 minutes; for concentration at 1 h: 60 minutes; for concentration at 1.5 h: 90 minutes
From the text: The imidazolecarboxylic acid derivatives of the present invention have a good oral absorption, as is evident from Table 6.
Concentration in Blood (μg/ml)

SMILES	MIC [1] [µg/mL]	concentration at 0.5 h [2] [µg/mL]	concentration at 1 h [2] [µg/mL]	concentration at 1.5 h [2] [µg/mL]
CC1(C)S[C@@H]2[C@H](NC(=O)[C@H](N)c3ccccc3)C(=O)N2[C@H]1C(=O)O [Ampicillin, reference compound]	> 500	81	306	41
CC1(C)S[C@@H]2[C@H](NC(=O)C(C(=O)O)c3ccccc3)C(=O)N2[C@H]1C(=O)O (stereo partly drawn) [Carbenicillin, reference compound]	100 (≈ 264 µM)	–	–	–
CC1(C)S[C@@H]2[C@H](NC(=O)[C@H](NC(=O)c3[nH]cnc3[N+](=O)[O-])c3ccccc3)C(=O)N2[C@H]1C(=O)O [Example 1, D-α-(4-nitroimidazole-5-carboxyamide) benzyl penicillin]	12.5 (≈ 25.6 µM)	–	–	–
CC1(C)S[C@@H]2[C@H](NC(=O)[C@H](NC(=O)c3[nH]cnc3Cl)c3ccccc3)C(=O)N2[C@H]1C(=O)O [Example 3]	25 (≈ 52.3 µM)	–	–	–
Cc1nc(S)[nH]c1C(=O)N[C@@H](C(=O)N[C@@H]1C(=O)N2[C@@H]1SC(C)(C)[C@@H]2C(=O)O)c1ccccc1 [Example 8]	25 (≈ 51.1 µM)	–	–	–
CCOC(=O)c1nc[nH]c1C(=O)N[C@@H](C(=O)N[C@@H]1C(=O)N2[C@@H]1SC(C)(C)[C@@H]2C(=O)O)c1ccccc1 [Example 13, D-α-(4-ethoxycarbonylimidazole-5-carboxyamide) benzylpenicillin]	25 (≈ 48.5 µM)	340	97	40

— patent US4451399A, “Imidazolecarboxylic acid derivatives” (priority 1979, dated 1984)
